Patent US8952024B2, “Herbicidal pyrimidone derivatives” (E I du Pont de Nemours and Company, priority 2009, dated 2015)

Legend:
Assay in all cases: Test B pre-/postemergence plant response
Type in all cases: in vivo
[1] = tested on: morningglory (Ipomoea coccinea)
In short: (§1)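 Seeds sown in loam–sand blend were treated preemergence, and plants at 2–18 cm (1- to 4-leaf stage) in peat-based medium were treated postemergence; compounds were formulated in non-phytotoxic solvent with surfactant. After 13–15 days in greenhouse, response was visually rated against controls, 0 (no effect) to 100 (complete control).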

[2] = tested on: blackgrass (Alopecurus myosuroides)
In short: as §1

[3] = tested on: ragweed (common ragweed, Ambrosia elatior)
In short: as §1

[4] = tested on: cocklebur (Xanthium strumarium)
In short: as §1

[5] = tested on: downy bromegrass (Bromus tectorum)
In short: as §1

kochia (Kochia scoparia) = tested on: kochia (Kochia scoparia)
In short: as §1

wild oat (Avena fatua) = tested on: wild oat (Avena fatua)
In short: as §1

[6] = tested on: Italian ryegrass (Lolium multiflorum)
In short: as §1

[7] = tested on: large crabgrass (Digitaria sanguinalis)
In short: as §1

[8] = tested on: woolly cupgrass (Eriochloa villosa)
In short: as §1

[9] = tested on: Surinam grass (Brachiaria decumbens)
In short: as §1

[10] = tested on: bermudagrass (Cynodon dactylon)
In short: as §1

[11] = tested on: wheat (Triticum aestivum)
In short: as §1

[12] = 250 g ai/ha, Preemergence, 0 to 100 scale
[13] = Postemergence, 62 g ai/ha, scale 0 (no effect) to 100 (complete control), 13 to 15 days
[14] = Postemergence, 125 g ai/ha, visual rating after 13 to 15 days, scale 0 (no effect) to 100 (complete control)
[15] = Preemergence, 31 g ai/ha, scale 0 to 100 (0 no effect, 100 complete control)
[16] = Preemergence, 62 g ai/ha, scale 0 to 100 (0 no effect, 100 complete control)
[17] = Preemergence, 125 g ai/ha, 0 to 100 scale
[18] = Postemergence, 31 g ai/ha, scale 0 to 100 (0 no effect, 100 complete control)
[19] = Postemergence, 250 g ai/ha, scale 0 to 100
[20] = 31 g ai/ha, postemergence, scale 0 to 100, 0 is no effect, 100 is complete control
[21] = 62 g ai/ha, postemergence, 0 is no effect, 100 is complete control, 13 to 15 days
[22] = Postemergence, 125 g ai/ha, scale 0 to 100 (0 no effect, 100 complete control)
[23] = Postemergence, 250 g ai/ha, scale 0 to 100 (0 no effect, 100 complete control)

CCCCc1ncc(C(=O)C2=C(O)CCCC2=O)c(=O)n1-c1ccccc1 [Compound 42]
Plant response rating, Morningglory [1, 12]: 0
Plant response rating, Morningglory [1, 13]: 70
Plant response rating, Morningglory [1, 14]: 75
Plant response rating, Morningglory [1, 15]: 0
Plant response rating, Morningglory [1, 16]: 0
Morningglory plant response rating [1, 17]: 0
Plant response rating, Blackgrass [2, 12]: 5
Plant response rating, Blackgrass [2, 18]: 5
Plant response rating, Blackgrass [2, 13]: 10
Plant response rating, Blackgrass [2, 14]: 15
Blackgrass plant response rating [2, 19]: 20
Plant response rating, Blackgrass [2, 15]: 0
Plant response rating, Blackgrass [2, 16]: 0
Blackgrass plant response rating [2, 17]: 0
Plant response rating, Ragweed [3, 12]: 80
Plant response rating, Ragweed [3, 13]: 75
Plant response rating, Ragweed [3, 14]: 85
Plant response rating, Ragweed [3, 15]: 0
Ragweed plant response rating [3, 17]: 25
Plant response rating, Cocklebur [4, 18]: 0
Plant response rating, Cocklebur [4, 13]: 45
Plant response rating, Cocklebur [4, 14]: 85
Cocklebur plant response rating [4, 19]: 95
Plant response rating, Cocklebur [4, 15]: 0
Plant response rating, Cocklebur [4, 16]: 0
Plant response rating, Bromegrass, Downy [5, 12]: 0
Plant response rating, Bromegrass, Downy [5, 18]: 0
Plant response rating, Bromegrass, Downy [5, 13]: 5
Plant response rating, Bromegrass, Downy [5, 14]: 15
Bromegrass, Downy plant response rating [5, 19]: 25
Plant response rating, Bromegrass, Downy [5, 15]: 0
Plant response rating, Bromegrass, Downy [5, 16]: 0
Bromegrass, Downy plant response rating [5, 17]: 0
Plant response rating, Kochia (kochia (Kochia scoparia); [13]): 100
Plant response rating, Kochia (kochia (Kochia scoparia); [14]): 100
Kochia plant response rating (kochia (Kochia scoparia); [19]): 100
Plant response rating, Oat, Wild (wild oat (Avena fatua); [12]): 0
Plant response rating, Oat, Wild (wild oat (Avena fatua); [13]): 10
Plant response rating, Oat, Wild (wild oat (Avena fatua); [14]): 10
Plant response rating, Oat, Wild (wild oat (Avena fatua); [15]): 0
Oat, Wild plant response rating (wild oat (Avena fatua); [17]): 0
Plant response rating, Ryegrass, Italian [6, 12]: 0
Plant response rating, Ryegrass, Italian [6, 13]: 5
Plant response rating, Ryegrass, Italian [6, 14]: 10
Plant response rating, Ryegrass, Italian [6, 15]: 0
Ryegrass, Italian plant response rating [6, 17]: 0
Plant response rating, Crabgrass, Large [7, 12]: 100
Plant response rating, Crabgrass, Large [7, 18]: 70
Plant response rating, Crabgrass, Large [7, 13]: 75
Plant response rating, Crabgrass, Large [7, 14]: 85
Crabgrass, Large plant response rating [7, 19]: 90
Plant response rating, Crabgrass, Large [7, 15]: 45
Plant response rating, Crabgrass, Large [7, 16]: 85
Crabgrass, Large plant response rating [7, 17]: 95
Plant response rating, Cupgrass, Woolly [8, 12]: 5
Plant response rating, Cupgrass, Woolly [8, 18]: 15
Plant response rating, Cupgrass, Woolly [8, 13]: 20
Plant response rating, Cupgrass, Woolly [8, 14]: 25
Cupgrass, Woolly plant response rating [8, 19]: 55
Plant response rating, Cupgrass, Woolly [8, 15]: 0
Plant response rating, Cupgrass, Woolly [8, 16]: 0
Cupgrass, Woolly plant response rating [8, 17]: 0
Plant response rating, Surinam Grass [9, 12]: 75
Plant response rating, Surinam Grass [9, 13]: 40
Plant response rating, Surinam Grass [9, 14]: 45
Plant response rating, Surinam Grass [9, 15]: 0
Surinam Grass plant response rating [9, 17]: 10
Plant response rating, Bermudagrass [10, 12]: 100
Plant response rating, Bermudagrass [10, 18]: 70
Plant response rating, Bermudagrass [10, 13]: 75
Plant response rating, Bermudagrass [10, 14]: 95
Bermudagrass plant response rating [10, 19]: 98
Plant response rating, Bermudagrass [10, 15]: 90
Plant response rating, Bermudagrass [10, 16]: 100
Bermudagrass plant response rating [10, 17]: 100
Plant response rating, Wheat [11, 12]: 0
Plant response rating, Wheat [11, 13]: 0
Plant response rating, Wheat [11, 14]: 5
Plant response rating, Wheat [11, 15]: 0
Wheat plant response rating [11, 17]: 0

CCCn1c(-c2ccc(F)cc2)ncc(C(=O)C2=C(O)CCCC2=O)c1=O [Compound 102]
Plant response rating, Morningglory [1, 20]: 65
Morningglory plant response rating (0 to 100 scale) [1, 21]: 100
Plant response rating, Morningglory [1, 22]: 100
Plant response rating, Morningglory [1, 23]: 100
Plant response rating, Blackgrass [2, 20]: 0
Blackgrass plant response rating (0 to 100 scale) [2, 21]: 5
Plant response rating, Blackgrass [2, 22]: 30
Plant response rating, Blackgrass [2, 23]: 45
Ragweed plant response rating (0 to 100 scale) [3, 21]: 80
Plant response rating, Ragweed [3, 22]: 85
Plant response rating, Ragweed [3, 23]: 95
Plant response rating, Cocklebur [4, 20]: 90
Cocklebur plant response rating (0 to 100 scale) [4, 21]: 95
Plant response rating, Cocklebur [4, 22]: 100
Plant response rating, Cocklebur [4, 23]: 100
Plant response rating, Bromegrass, Downy [5, 20]: 0
Bromegrass, Downy plant response rating (0 to 100 scale) [5, 21]: 10
Plant response rating, Bromegrass, Downy [5, 22]: 10
Plant response rating, Bromegrass, Downy [5, 23]: 30
Plant response rating, Kochia (kochia (Kochia scoparia); [20]): 65
Kochia plant response rating (0 to 100 scale) (kochia (Kochia scoparia); [21]): 70
Plant response rating, Kochia (kochia (Kochia scoparia); [22]): 100
Plant response rating, Kochia (kochia (Kochia scoparia); [23]): 100
Plant response rating, Oat, Wild (wild oat (Avena fatua); [20]): 5
Oat, Wild plant response rating (0 to 100 scale) (wild oat (Avena fatua); [21]): 15
Plant response rating, Oat, Wild (wild oat (Avena fatua); [22]): 40
Plant response rating, Oat, Wild (wild oat (Avena fatua); [23]): 80
Ryegrass, Italian plant response rating (0 to 100 scale) [6, 21]: 0
Plant response rating, Ryegrass, Italian [6, 22]: 5
Plant response rating, Ryegrass, Italian [6, 23]: 10
Plant response rating, Crabgrass, Large [7, 20]: 70
Crabgrass, Large plant response rating (0 to 100 scale) [7, 21]: 80
Plant response rating, Crabgrass, Large [7, 22]: 85
Plant response rating, Crabgrass, Large [7, 23]: 90
Plant response rating, Cupgrass, Woolly [8, 20]: 70
Cupgrass, Woolly plant response rating (0 to 100 scale) [8, 21]: 75
Plant response rating, Cupgrass, Woolly [8, 22]: 75
Plant response rating, Cupgrass, Woolly [8, 23]: 85
Surinam Grass plant response rating (0 to 100 scale) [9, 21]: 75
Plant response rating, Surinam Grass [9, 22]: 75
Plant response rating, Surinam Grass [9, 23]: 85
Plant response rating, Bermudagrass [10, 20]: 80
Bermudagrass plant response rating (0 to 100 scale) [10, 21]: 85
Plant response rating, Bermudagrass [10, 22]: 85
Plant response rating, Bermudagrass [10, 23]: 100
Wheat plant response rating (0 to 100 scale) [11, 21]: 10
Plant response rating, Wheat [11, 22]: 20
